Values of other authors in patent publication US11318093B2, “Dental topical anesthetic gel” (Pac-Dent, Inc., priority 2019, dated 2022).

Key:
[1] = tested on: MCP-2 chemokine and other proinflammatory cytokines; settings: Petrosino et al. 2018; in vitro ACD model; inhibition of MCP-2 chemokine and proinflammatory cytokine production
[2] = Evans 1991
[3] = tested on: cyclooxygenase (COX)
[4] = tested on: methicillin-resistant Staphylococcus aureus strains (MRSA); settings: European research; strains resistant to several classes of drugs
[5] = in vivo

## C=C(C)[C@@H]1CCC(C)=C[C@H]1c1c(O)cc(CCCCC)cc1O [CBD, cannabidiol]
[1]
  anti-inflammatory properties: potent anti-inflammatory properties

## CCCCCc1cc(O)c2c(c1)OC(C)(C)[C@@H]1CCC(C)=C[C@@H]21 [THC, tetrahydrocannabinol]
[2]
  anti-inflammatory potency relative to aspirin: twenty times that of aspirin
  anti-inflammatory potency relative to hydrocortisone: twice that of hydrocortisone
[3]
  cyclooxygenase (COX) inhibition: without any cyclooxygenase (COX) inhibition

## CCCCCc1cc(O)c(C/C=C(\C)CCC=C(C)C)c(O)c1 [CBG, cannabigerol]
[4]
  antibacterial agent against MRSA: effective antibacterial agent
[1]
  anti-inflammatory properties: some anti-inflammatory benefits

## CCCCCc1cc(O)c2c(c1)OC(C)(CCC=C(C)C)C=C2 (stereo not drawn) [CBC, cannabichromene]
[1]
  anti-inflammatory properties: some anti-inflammatory benefits
[5]
  pain and inflammation associated with collagen-induced osteoarthritis: block pain and inflammation

## C=C(C)[C@@H]1CCC(C)=C[C@H]1c1c(O)cc(CCC)cc1O [CBDV, cannabidivarin]
[1]
  anti-inflammatory properties: some anti-inflammatory benefits
